We go through 38 compounds from the supplement of paper PMC12137928.

Each structure is given as a SMILES string. Structures can show the parent of a compound that is named as a salt.

The assay relates to HCT116. The settings on record: 72 h. In short, it runs like this:
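HCT116 cells were plated at 250 per well in 1536-well plates and allowed 5 h to attach. CellTiter-Glo luminescence was normalized to vehicle as 0% and positive control as -100%, followed by pattern correction. Four-parameter Hill fits provided IC50 and maximal efficacy.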

The compound `C=CCC1(C(C)CC)C(=O)NC(=O)NC1=O` (stereo unspecified) [Talbutal] showed an IC50 cell viability (ICRF193 0 nM) of over 45.8 µM and an IC50 cell viability (ICRF193 200 nM) of over 45.8 µM.
Take `CCN(CC)CCNC(=O)c1cc(S(C)(=O)=O)ccc1OC` [Tiapride hydrochloride]: the IC50 cell viability was over 45.8 µM (ICRF193 0 nM) and over 45.8 µM (ICRF193 200 nM).
On to `COc1cc(N)cn[n+]1-c1ccccc1` [Amezinium methylsulfate], for which the IC50 cell viability is over 45.8 µM (ICRF193 0 nM) and over 45.8 µM (ICRF193 200 nM).
For `COC(=O)/C=C\C(=O)OC` [Dimethyl maleate], the IC50 cell viability was over 45.8 µM (ICRF193 0 nM) and over 45.8 µM (ICRF193 200 nM).
On to `CC(C)(C)NCC(O)c1ccc(O)c(CO)c1` (stereo unspecified) [Salbutamol], for which the IC50 cell viability (ICRF193 0 nM) is over 45.8 µM and the IC50 cell viability (ICRF193 200 nM) was over 45.8 µM.
Regarding `Cc1ccc(/C(=C\CN2CCCC2)c2ccccn2)cc1` [Triprolidine], the IC50 cell viability is over 45.8 µM (ICRF193 0 nM) and over 45.8 µM (ICRF193 200 nM).
On to `C[C@H]1COc2c(C3(N)CC3)c(F)cc3c(=O)c(C(=O)O)cn1c23` [Pazufloxacin], for which the IC50 cell viability by setting is: (ICRF193 0 nM) over 45.8 µM; (ICRF193 200 nM) over 45.8 µM.
Consider `CC(C)(C)NCC(O)c1ccccc1Cl` (stereo unspecified) [Tulobuterol hydrochloride], for which the IC50 cell viability (ICRF193 0 nM) is over 45.8 µM and the IC50 cell viability (ICRF193 200 nM) was over 45.8 µM.
For `NS(=O)(=O)c1cc(-c2nnn[nH]2)c(NCc2cccs2)cc1Cl` [Azosemide], the IC50 cell viability is over 45.8 µM (ICRF193 0 nM) and over 45.8 µM (ICRF193 200 nM).
With `CNC[C@H](O)[C@@H](O)[C@H](O)[C@H](O)CO` [Meglumine], the IC50 cell viability (ICRF193 0 nM) was over 45.8 µM and the IC50 cell viability (ICRF193 200 nM) was over 45.8 µM.
Turning to `O.O.O=C(O)c1cc(O)c2c(c1)[O][Bi][O]2` [Bismuth(III) gallate basic hydrate], the IC50 cell viability runs as follows: (ICRF193 0 nM) over 45.8 µM; (ICRF193 200 nM) over 45.8 µM.
Turning to `C[N+](C)(C)C1CCC(CC2CCC([N+](C)(C)C)CC2)CC1` (stereo unspecified) [Mebezonium Iodide], the IC50 cell viability was over 45.8 µM (ICRF193 0 nM) and over 45.8 µM (ICRF193 200 nM).
With `Cc1cccc(N(C)C(=S)Oc2ccc3c(c2)C2CCC3C2)c1` (stereo unspecified) [Tolciclate], the IC50 cell viability reads like this: (ICRF193 0 nM) over 45.8 µM; (ICRF193 200 nM) over 45.8 µM.
With `C#C[C@]1(O)CC[C@H]2[C@@H]3CCC4=C(CCC(=O)C4)[C@H]3CC[C@@]21C` [NORETHYNODREL], the IC50 cell viability is over 45.8 µM (ICRF193 0 nM) and over 45.8 µM (ICRF193 200 nM).
Regarding `CCCCC(F)(F)[C@@]1(O)CC[C@H]2[C@@H](CC(=O)[C@@H]2CCCCCCC(=O)O)O1` [Lubiprostone], the IC50 cell viability by setting is: (ICRF193 0 nM) over 45.8 µM; (ICRF193 200 nM) over 45.8 µM.
With `Cc1oc(-c2ccccc2)nc1CCOc1ccc(CC2C(=O)NOC2=O)cc1` (stereo unspecified) [JTT-501], the IC50 cell viability runs as follows: (ICRF193 0 nM) over 45.8 µM; (ICRF193 200 nM) over 45.8 µM.
As for `CCNC1(c2cccs2)CCCCC1=O` (stereo unspecified) [Tiletamine Hydrochloride], the IC50 cell viability is, setting by setting: (ICRF193 0 nM) over 45.8 µM; (ICRF193 200 nM) over 45.8 µM.
Take `CCC(c1ccccc1)c1c(O)c2ccccc2oc1=O` (stereo unspecified) [Phenprocoumon]: the IC50 cell viability runs as follows: (ICRF193 0 nM) over 45.8 µM; (ICRF193 200 nM) over 45.8 µM.
As to `Cc1[nH]c(=O)c(C#N)cc1-c1ccc2nccn2c1` [Olprinone], the IC50 cell viability runs as follows: (ICRF193 0 nM) over 45.8 µM; (ICRF193 200 nM) over 45.8 µM.
Regarding `CC(=O)OC[C@H]1O[C@@](COC(C)=O)(O[C@H]2O[C@H](COC(C)=O)[C@@H](OC(C)=O)[C@H](OC(C)=O)[C@H]2OC(C)=O)[C@@H](OC(C)=O)[C@@H]1OC(C)=O` [Sucrose octaacetate], the IC50 cell viability was over 45.8 µM (ICRF193 0 nM) and over 45.8 µM (ICRF193 200 nM).
In turn, `CC(C1=C(CCN(C)C)Cc2ccccc21)c1ccccn1` (stereo in doubt) [(S)-(+)-Dimethindene maleate] displayed an IC50 cell viability (ICRF193 0 nM) of over 45.8 µM and an IC50 cell viability (ICRF193 200 nM) of over 45.8 µM.
As to `COc1ccc(-c2noc(CC(=O)O)c2-c2ccc(OC)cc2)cc1` [Mofezolac], the IC50 cell viability reads like this: (ICRF193 0 nM) over 45.8 µM; (ICRF193 200 nM) over 45.8 µM.
In the case of `CCCCCCCCCC(=O)N[C@@H](Cc1c[nH]c2ccccc12)C(=O)N[C@H](CC(N)=O)C(=O)N[C@@H](CC(=O)O)C(=O)N[C@@H]1C(=O)NCC(=O)N[C@@H](CCCN)C(=O)N[C@@H](CC(=O)O)C(=O)N[C@H](C)C(=O)N[C@@H](CC(=O)O)C(=O)NCC(=O)N[C@H](CO)C(=O)N[C@@H]([C@H](C)CC(=O)O)C(=O)N[C@@H](CC(=O)c2ccccc2N)C(=O)O[C@@H]1C` [Daptomycin], the IC50 cell viability by setting is: (ICRF193 0 nM) over 45.8 µM; (ICRF193 200 nM) over 45.8 µM.
For the compound `N[C@@H]1C[C@H]1c1ccccc1` [Tranylcypromine hydrochloride], the IC50 cell viability runs as follows: (ICRF193 0 nM) over 45.8 µM; (ICRF193 200 nM) over 45.8 µM.
Consider `COc1ccc(CC(C)(C)NC[C@H](O)c2cc(O)cc3c2OCC(=O)N3)cc1` [Olodaterol], for which the IC50 cell viability is, setting by setting: (ICRF193 0 nM) over 45.8 µM; (ICRF193 200 nM) over 45.8 µM.
As for `CC[C@H](C)[C@H](N)C(=O)O` (racemic) [DL-Isoleucine], the IC50 cell viability (ICRF193 0 nM) is over 45.8 µM and the IC50 cell viability (ICRF193 200 nM) is over 45.8 µM.
As to `CCCCC1=NC2(CCCC2)C(=O)N1Cc1ccc(-c2ccccc2-c2nnn[nH]2)cc1` [Irbesartan], the IC50 cell viability was over 45.8 µM (ICRF193 0 nM) and over 45.8 µM (ICRF193 200 nM).
Turning to `Oc1ccc(Cl)cc1Cc1ccccc1` [Clorophene], the IC50 cell viability was over 45.8 µM (ICRF193 0 nM) and over 45.8 µM (ICRF193 200 nM).
Consider `CC(C)(C)CC(C)(C)c1ccc(O)cc1` [4-(1,1,3,3-Tetramethylbutyl)phenol], for which the IC50 cell viability is, setting by setting: (ICRF193 0 nM) over 45.8 µM; (ICRF193 200 nM) over 45.8 µM.
In the case of `C[N+]1(CC2COC(c3ccccc3)(c3ccccc3)O2)CCCCC1` (stereo unspecified) [Anacolin], the IC50 cell viability is, setting by setting: (ICRF193 0 nM) over 45.8 µM; (ICRF193 200 nM) over 45.8 µM.
For `O=C(Oc1ccccc1C(=O)O)c1ccccc1O` [Salsalate], the IC50 cell viability is, setting by setting: (ICRF193 0 nM) over 45.8 µM; (ICRF193 200 nM) over 45.8 µM.
For `CN1CCCN=C1/C=C/c1cccs1` [Pyrantel tartrate], the IC50 cell viability is over 45.8 µM (ICRF193 0 nM) and over 45.8 µM (ICRF193 200 nM).
With `O=C1CC[C@@]2(O)[C@H]3Cc4ccc(O)c5c4[C@@]2(CCN3CC2CC2)[C@H]1O5` [Naltrexone hydrochloride], the IC50 cell viability (ICRF193 0 nM) was over 45.8 µM and the IC50 cell viability (ICRF193 200 nM) is over 45.8 µM.
Consider `O=C1NC(c2ccccc2)(c2ccccc2)C(=O)N1COP(=O)(O)O` [Fosphenytoin], for which the IC50 cell viability is over 45.8 µM (ICRF193 0 nM) and over 45.8 µM (ICRF193 200 nM).
`NC(=O)c1cc[n+](CC2=C(C(=O)[O-])N3C(=O)[C@@H](NC(=O)Cc4cccs4)[C@H]3SC2)cc1` [Cefalonium]: the IC50 cell viability was over 45.8 µM (ICRF193 0 nM) and over 45.8 µM (ICRF193 200 nM).
As for `C[C@]12CCC(=O)C=C1CC[C@@H]1[C@@H]2[C@@H](O)C[C@@]2(C)[C@H]1CC[C@]2(O)C(=O)COC(=O)CCC(=O)O` [Hydrocortisone 21-hemisuccinate sodium salt], the IC50 cell viability reads like this: (ICRF193 0 nM) over 45.8 µM; (ICRF193 200 nM) over 45.8 µM.
On to `CCOC(=O)N[C@@H]1CC[C@@H]2[C@@H](C1)C[C@H]1C(=O)O[C@H](C)[C@H]1[C@H]2/C=C/c1ccc(-c2cccc(F)c2)cn1` [Vorapaxar Sulfate], for which the IC50 cell viability is over 45.8 µM (ICRF193 0 nM) and over 45.8 µM (ICRF193 200 nM).
On to `O=C1C(CC[S+]([O-])c2ccccc2)C(=O)N(c2ccccc2)N1c1ccccc1` (stereo unspecified) [SULFINPYRAZONE], for which the IC50 cell viability is, setting by setting: (ICRF193 0 nM) over 45.8 µM; (ICRF193 200 nM) over 45.8 µM.
